Structures can show the parent of a compound that is named as a salt.

Series [1] addresses T1, PD-L1/PD-1 complex formation (Homo sapiens, UniProt Q9NZQ7).
T1 construct: purchased BPS Bioscience
In words: PD-L1/PD-1 Interaction Assay (ELISA platform). It is filed as binding. The note with it: human PD-1-Fc coated plates, PD-L1-Fc-biotin 0.1 μg/ml, compounds pre-incubated 2 hours. Here is the method: The ability of compounds to block PD-L1/PD-1 complex formation was evaluated using biochemical interaction assay based on the ELISA platform.
EIA/RIA high binding 96-well plates (Costar) were coated with human PD-1-Fc protein diluted in PBS to 0.5 μg/ml overnight at 4° C. The PD-1-Fc coated plates were washed in PBST and blocked in blocking buffer (2% BSA in PBST). Serially diluted compounds were pre-incubated with PD-L1-Fc-biotin (0.1 μg/ml final) for 2 hours on a shaker at room temperature. The PD-1-Fc coated plates were washed with PBST and solutions containing PD-L1 and compounds were added to the plates. The PD-1-Fc coated plates were incubated with PD-L1 and compound solution for 2 hours on a shaker at room temperature. After the incubation unbound PD-L1 was washed away with PBST and plates were incubated with the blocking buffer for 10 minutes. The bound PD-L1-Fc-biotin was detected with streptavidin-HRP and TMB substrate. The plates were read at OD450 nm in a plate reader (i3 from Molecular Devices) and percentages of inhibition of PD-L1/PD-1 complex formation were calculated.
PD-1-Fc protein was made at Polaris and PD-L1-Fc was purchased from BPS Bioscience.
(In general: ELISA stands for enzyme-linked immunosorbent assay.)

T1 sequence (Q9NZQ7 19-239 limits assumed, one chain of several): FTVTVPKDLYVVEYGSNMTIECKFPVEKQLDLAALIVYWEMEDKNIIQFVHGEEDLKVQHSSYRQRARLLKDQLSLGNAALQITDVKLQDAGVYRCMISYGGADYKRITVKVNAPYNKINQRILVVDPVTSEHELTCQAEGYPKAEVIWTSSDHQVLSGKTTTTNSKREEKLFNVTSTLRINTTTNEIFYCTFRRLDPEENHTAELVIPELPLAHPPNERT

Take `Cc1c(COc2ccc(CNC(C)(CO)CO)cc2Br)cccc1-c1cccc(COc2ccc(CNC(C)(CO)CO)cc2Br)c1C` (as salt: trifluoroacetic acid salt) [Example 33, 2,2′-((((((2,2′-Dimethyl-[1,1′-biphenyl]-3,3′-diyl)bis(methylene))bis(oxy))bis(3-bromo-4,1-phenylene))bis(methylene))bis(azanediyl))bis(2-methylpropane-1,3-diol) di-trifluoroacetic acid salt]: the melting point was 134 to 138 °C.
Still for that read-out and setting: in the case of `Cc1c(COc2ccc(CN3CCCC[C@H]3C(=O)O)cc2C#N)cccc1-c1cccc(COc2ccc(CN3CCCC[C@H]3C(=O)O)cc2C#N)c1C` (as salt: trifluoroacetic acid salt) [Example 34, (2S,2′S)-1,1′-(((((2,2′-dimethyl-[1,1′-biphenyl]-3,3′-diyl)bis(methylene))bis(oxy))bis(3-cyano-4,1-phenylene))bis(methylene))bis(piperidine-2-carboxylic acid) di-trifluoroacetic acid salt] it was 196 to 200 °C.
`Cc1c(COc2ccc(CN3CCCC[C@H]3C(=O)O)cc2Br)cccc1-c1cccc(COc2ccc(CN3CCCC[C@H]3C(=O)O)cc2Br)c1C` [Example 1, (2S,2′S)-1,1′-(((((2,2′-dimethyl-[1,1′-biphenyl]-3,3′-diyl)bis(methylene))bis(oxy))bis(3-bromo-4,1-phenylene))bis(methylene))bis(piperidine-2-carboxylic acid)] displayed a melting point of 222 to 226 °C. Also, in series [1], the IC50 lay within 0.1 to 10 nM.
`CC(=O)NCCNCc1ccc(OCc2cccc(-c3cccc(COc4ccc(CNCCNC(C)=O)cc4Br)c3C)c2C)c(Br)c1` [Example 6, N,N′-(((((((2,2′-Dimethyl-[1,1′-biphenyl]-3,3′-diyl)bis(methylene))bis(oxy))bis(3-bromo-4,1-phenylene))bis(methylene))bis(azanediyl))bis(ethane-2,1-diyl))diacetamide] displayed a melting point of 95 to 99 °C. This compound also showed a 50% inhibitory concentration (IC50) in series [1] of 11 to 100 nM.
As for `Cc1c(COc2ccc(CN3C[C@@H](O)C[C@H]3C(=O)O)cc2Br)cccc1-c1cccc(COc2ccc(CN3C[C@@H](O)C[C@H]3C(=O)O)cc2Br)c1C` [Example 7, (2S,2'S,4S,4′S)-1,1′-(((((2,2′-Dimethyl-[1,1′-biphenyl]-3,3′-diyl)bis(methylene))bis(oxy))bis(3-bromo-4,1-phenylene))bis(methylene))bis(4-hydroxypyrrolidine-2-carboxylic acid)], the melting point was 260 to 264 °C. In series [1], this compound displayed a half-maximal inhibitory concentration (IC50) of 0.1 to 10 nM.
In turn, `O=C(O)[C@@H]1CCCCN1Cc1ccc(OCc2cccc(-c3cccc(COc4ccc(CN5CCCC[C@H]5C(=O)O)cc4Br)c3)c2)c(Br)c1` [Example 8, (2S,2′S)-1,1′-(((([1,1′-Biphenyl]-3,3′-diylbis(methylene))bis(oxy))bis(3-bromo-4,1-phenylene))bis(methylene))bis(piperidine-2-carboxylic acid)] showed a melting point of 306 to 310 °C. This compound also had a half-inhibitory concentration (IC50) in series [1] of 1010 to 30000 nM.
The like results for `O=C(O)[C@@H]1CCCCN1Cc1ccc(OCc2cccc(-c3cccc(COc4ccc(CN5CCCC[C@H]5C(=O)O)cc4Br)c3Cl)c2Cl)c(Br)c1` [Example 9, (2S,2′S)-1,1′-(((((2,2′-Dichloro-[1,1′-biphenyl]-3,3′-diyl)bis(methylene))bis(oxy))bis(3-bromo-4,1-phenylene))bis(methylene))bis(piperidine-2-carboxylic acid)] were, in that order, 184 to 188 °C and 0.1 to 10 nM.
In the case of `O=C(O)[C@@H]1CCCCN1Cc1ccc(OCc2cccc(-c3cccc(COc4ccc(CN5CCCC[C@H]5C(=O)O)cc4Br)c3F)c2F)c(Br)c1` [Example 10, (2S,2′S)-1,1′-(((((2,2′-Difluoro-[1,1′-biphenyl]-3,3′-diyl)bis(methylene))bis(oxy))bis(3-bromo-4,1-phenylene))bis(methylene))bis(piperidine-2-carboxylic acid)], the melting point lay in the range of 204 to 208 °C. The half-inhibitory concentration (IC50) in series [1] lay within 110 to 1000 nM.
For `Cc1cc(CN2CCCC[C@H]2C(=O)O)ccc1OCc1cccc(-c2cccc(COc3ccc(CN4CCCC[C@H]4C(=O)O)cc3C)c2C)c1C` [Example 11, (2S,2′S)-1,1′-(((((2,2′-Dimethyl-[1,1′-biphenyl]-3,3′-diyl)bis(methylene))bis(oxy))bis(3-methyl-4,1-phenylene))bis(methylene))bis(piperidine-2-carboxylic acid)] the same measures were 191 to 195 °C and 11 to 100 nM.
In the case of `Cc1c(COc2ccc(CN3CCCC[C@H]3C(=O)O)cc2Cl)cccc1-c1cccc(COc2ccc(CN3CCCC[C@H]3C(=O)O)cc2Cl)c1C` [Example 12, (2S,2′S)-1,1′-(((((2,2′-Dimethyl-[1,1′-biphenyl]-3,3′-diyl)bis(methylene))bis(oxy))bis(3-chloro-4,1-phenylene))bis(methylene))bis(piperidine-2-carboxylic acid)], the melting point lay in the range of 184 to 188 °C. Moreover, the 50% inhibitory concentration (IC50) in series [1] was 11 to 100 nM.
`Cc1c(COc2ccc(CN3CCCC[C@H]3C(=O)O)cc2C(F)(F)F)cccc1-c1cccc(COc2ccc(CN3CCCC[C@H]3C(=O)O)cc2C(F)(F)F)c1C` [Example 13, (2S,2′S)-1,1′-(((((2,2′-Dimethyl-[1,1′-biphenyl]-3,3′-diyl)bis(methylene))bis(oxy))bis(3-(trifluoromethyl)-4,1-phenylene))bis(methylene))bis(piperidine-2-carboxylic acid)] registered a melting point of 287 to 291 °C. The compound further displayed an IC50 in series [1] of 0.1 to 10 nM.
Compound `Cc1c(COc2ccc(CN3CCCC[C@H]3C(=O)O)cc2F)cccc1-c1cccc(COc2ccc(CN3CCCC[C@H]3C(=O)O)cc2F)c1C` [Example 19, (2S,2′S)-1,1′-(((((2,2′-Dimethyl-[1,1′-biphenyl]-3,3′-diyl)bis(methylene))bis(oxy))bis(3-fluoro-4,1-phenylene))bis(methylene))bis(piperidine-2-carboxylic acid)] displayed a melting point of 205 to 209 °C. The compound also displayed an IC50 in series [1] of 110 to 1000 nM.
Compound `COc1cc(CN2CCCC[C@H]2C(=O)O)ccc1OCc1cccc(-c2cccc(COc3ccc(CN4CCCC[C@H]4C(=O)O)cc3OC)c2C)c1C` [Example 20, (2S,2′S)-1,1′-(((((2,2′-Dimethyl-[1,1′-biphenyl]-3,3′-diyl)bis(methylene))bis(oxy))bis(3-methoxy-4,1-phenylene))bis(methylene))bis(piperidine-2-carboxylic acid)] showed a melting point of 192 to 196 °C. The compound also had an IC50 in series [1] of 1010 to 30000 nM.
Compound `Cc1c(COc2ccc(CN3CCCC[C@H]3C(=O)O)cc2O)cccc1-c1cccc(COc2ccc(CN3CCCC[C@H]3C(=O)O)cc2O)c1C` [Example 21, (2S,2′S)-1,1′-(((((2,2′-Dimethyl-[1,1′-biphenyl]-3,3′-diyl)bis(methylene))bis(oxy))bis(3-hydroxy-4,1-phenylene))bis(methylene))bis(piperidine-2-carboxylic acid)] yielded a melting point of 143 to 147 °C. In series [1], this compound had an IC50 of 1010 to 30000 nM.
The like results for `COc1cc(OCc2cccc(-c3cccc(COc4cc(OC)c(CNCCO)c(OC)c4)c3C)c2C)cc(OC)c1CNCCO` [Example 22, 2,2′-((((((2,2′-Dimethyl-[1,1′-biphenyl]-3,3′-diyl)bis(methylene))bis(oxy))bis(2,6-dimethoxy-4,1-phenylene))bis(methylene))bis(azanediyl))bis(ethan-1-ol)] were, in that order, 86 to 90 °C and 11 to 100 nM.

The term melting point denotes the temperature, or range, at which the solid turns liquid. The term IC50 denotes the concentration that inhibits the measured activity by half. Low readings indicate greater potency, high ones weaker potency.

The record behind these values is patent US20180065917A1, “IMMUNE CHECKPOINT INHIBITORS, COMPOSITIONS AND METHODS THEREOF” (Polaris Pharmaceuticals, Inc., priority 2016, published 2018).
